Results reported in US8887721B2, “Attenuation of vasoactive oxygen carrier-induced vasoconstriction” (The General Hospital Corporation, priority 2006, dated 2014).
Read-outs that look alike come from different tables or passages of the source.

Tests used:
[1] = tested on: anesthetized wild type and NOS3−/− mice; experiment: Invasive hemodynamic measurements in anesthetized mice; assay type: in vivo, mouse; details: for CO (cardiac output) / CVP (central venous pressure) / Ea (arterial elastance) / HR (heart rate) / LVEDP (left ventricular end-diastolic pressure) / LVESP (left ventricular end-systolic pressure) / SVR (systemic vascular resistance) / Tau (time constant of isovolumic relaxation) / dP/dtmax (maximum rate of developed left ventricular pressure) / dP/dtmin (minimum rate of developed left ventricular pressure): mean ± SEM
Procedure: To explore the mechanisms by which infusion of tetrameric hemoglobin causes systemic hypertension in awake wild type mice, invasive hemodynamic measurements were performed in anesthetized wild type and NOS3^−/− mice before and three minutes after infusion of murine tetrameric hemoglobin or whole murine blood as a control. Mice were anesthetized with an intraperitoneal injection of ketamine (100 mg/kg) and xylazine (5 mg/kg). Muscle relaxation was obtained by adding pancuronium (5 μg/g) after tracheal intubation. […] Two saline-filled PE-10 catheters were inserted separately via the jugular veins; one for monitoring central venous pressure (CVP) and the other for infusion of whole blood or tetrameric hemoglobin solution. A Millar pressure-volume catheter was inserted retrograde via the right carotid artery into the left ventricle (1.4F, model SPR839, Millar Instruments Inc., Houston, Tex.). After obtaining stable hemodynamic measurements, whole blood (1.44 g Hb/kg) or murine tetrameric Hb solution (0.48 g/kg) was infused through the jugular vein, at a rate of 100 μl/min for 3 min. PVAN software was used to analyze left ventricular pressure-volume loop data (Conductance Technologies Inc., San Antonio, Tex.).

plasma hemoglobin [2] = molecular target: plasma hemoglobin (Bos taurus, UniProt P01966+P02070); experiment: Plasma methemoglobin concentration in awake lambs; assay type: in vivo, lamb
Chain of plasma hemoglobin (Bos taurus, UniProt P01966+P02070) (P01966 2-142 limits assumed): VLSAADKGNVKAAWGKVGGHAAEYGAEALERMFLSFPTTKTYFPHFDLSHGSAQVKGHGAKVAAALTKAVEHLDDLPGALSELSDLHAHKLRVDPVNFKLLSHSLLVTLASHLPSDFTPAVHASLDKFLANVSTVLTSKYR
Chain of plasma hemoglobin (Bos taurus, UniProt P01966+P02070) (P02070 whole entry): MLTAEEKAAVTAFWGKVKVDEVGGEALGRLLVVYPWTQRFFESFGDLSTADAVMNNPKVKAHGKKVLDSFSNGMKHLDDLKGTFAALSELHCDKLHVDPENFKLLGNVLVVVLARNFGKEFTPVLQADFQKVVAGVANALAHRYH
Text: Lambs were briefly anesthetized, given a tracheostomy, the internal jugular vein was percutaneously catheterized and a flow directed Swan Ganz catheter passed into the pulmonary artery to permit measurements of central hemodynamics and cardiac output by thermaldilution. An arterial line was placed in the carotid artery. Animals were allowed several hours to awaken from anesthesia and were studied awake and restrained in a harness. […] Systemic vascular resistance (SVR) and pulmonary vascular resistance (PVR) were calculated using standard formulae as follows: [SVR ([…])=(MAP−CVP)/CO*79.96]; and [PVR ([…])=(PAP−PCWP)/CI*79.96].
Methemoglobin concentration in plasma was measured before and after breathing 80 ppm nitric oxide for one hour (and before and after infusion of autologous whole blood or HBOC-201). […]
Plasma methemoglobin concentration was measured before and after breathing nitric oxide at various concentrations (and before and after infusion of autologous whole blood or HBOC-201).

awake mice = experiment: Tail-cuff systolic blood pressure in awake mice; assay type: in vivo, mouse; details: for tail systolic blood pressure after intravenous injection: awake wild type mice, 0.012 ml/g body weight i.v.
Procedure: The mouse was placed in a restrainer for this procedure. All mice were handled briefly and gently to inject a tetrameric hemoglobin solution into a lateral tail vein. Before injection, the tail was warmed under an infra-red heat lamp for 5 minutes to enable access to the vein. The injection volume was 0.012 ml/g body weight for each mouse. Infusion was done during the course of one minute.
With the use of volumetrically calibrated flowmeters (Cole-Parmer, Vernon Hills, Ill.), nitric oxide gas (800 ppm in nitrogen; INO Therapeutics, Clinton, […], Clinton, N.J.). The nitric oxide, nitrogen dioxide and oxygen (21%) levels were continuously monitored (INOvent delivery system, Datex-Ohmeda, Madison, Wis.).
(§1) The effects of breathing nitric oxide on systolic tail blood pressure after the infusion of murine tetrameric hemoglobin solution were monitored every 10 minutes for the 1st hour and every 20 minutes for the rest of the experiments. Blood hemoglobin and methemoglobin levels were measured every 15 minutes in the nitric oxide pretreatment group, wherein all mice breathed nitric oxide at 80 ppm for 1 hour before infusion. Hemoglobin and methemoglobin levels in whole blood and plasma were measured in additional mice after the intravenous infusion of tetrameric hemoglobin solution at 10 minutes and 60 minutes while breathing nitric oxide at 8 ppm or 80 ppm throughout the experiment.
Systolic blood pressure was measured with a non-invasive tail-cuff machine (XBP 1000, Kent Scientific, Torrington, Conn.) in wild type mice and NOS3^−/− mice. Mice were first subjected to one or two practice sessions to acclimate them to the device. The mouse was placed in a restrainer for a short period of time (<1 minute to start), then kept in the restrainer for longer times to acclimate to the device. The degree of acclimatization was judged by the absence of agitation in the device. After a few days of practice sessions, mice were restrained in a commercial mouse restraint device (Kent Scientific, Torrington, Conn.). […]
All values are expressed as mean±SEM. Data were analyzed using ANOVA. The difference in hemodynamic parameters before and after infusion of murine tetrameric hemoglobin or nitric oxide inhalation was examined by a paired t-test for repeated measurements. P values less than 0.05 were considered significant (as indicated by a * in the figures).

plasma hemoglobin [3] = molecular target: T1, plasma hemoglobin (Mus musculus, UniProt P01942+P02088); assay type: in vivo
T1 construct: The blood was frozen and thawed three times and then centrifuged; from tissue; host or cells: whole blood of wild type C57BL/6 mice (hemolysate, filtered, dialysed, concentrated)
T1 sequence (P01942 2-142 limits assumed): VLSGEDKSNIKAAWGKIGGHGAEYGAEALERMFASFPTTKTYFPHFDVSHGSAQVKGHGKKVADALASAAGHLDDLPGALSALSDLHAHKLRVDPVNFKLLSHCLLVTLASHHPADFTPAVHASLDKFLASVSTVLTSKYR
T1 sequence (P02088 2-147 limits assumed): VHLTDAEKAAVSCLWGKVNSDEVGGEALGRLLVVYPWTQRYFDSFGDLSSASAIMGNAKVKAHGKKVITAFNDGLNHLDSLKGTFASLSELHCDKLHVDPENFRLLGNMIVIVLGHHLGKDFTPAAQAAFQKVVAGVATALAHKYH
Procedure: Hemoglobin and methemoglobin concentration in whole blood and plasma were determined by the cyanomethemoglobin method measuring OD at 540 nm and 630 nm with a Spectrophotometer-Biomate 3 (Thermoelectron Corporation, Waltham, Mass.).
as §1

awake lambs = assay type: in vivo, lamb
Text: Lambs were briefly anesthetized, given a tracheostomy, the internal jugular vein was percutaneously catheterized and a flow directed Swan Ganz catheter passed into the pulmonary artery to permit measurements of central hemodynamics and cardiac output by thermaldilution. An arterial line was placed in the carotid artery. Animals were allowed several hours to awaken from anesthesia and were studied awake and restrained in a harness. Three groups of lambs were studied: (1) “autologous whole blood” animals donated autologous blood, which was stored with heparin anti-coagulation at 4° C.—two days later they received an infusion of their 37° C. autologous whole blood (12 ml/kg over 20 minutes) while breathing at FiO2=0.3 (n=3); (2) “HBOC-201” animals received an infusion of HBOC-201 (12 ml/kg over 20 minutes) while breathing at FiO2=0.3 (n=3); and (3) “HBOC-201 after iNO” animals inhaled 80 ppm nitric oxide at FiO2=0.3 for one hour before receiving an infusion of HBOC-201 (12 ml/kg over 20 minutes) (n=5). Systemic vascular resistance (SVR) and pulmonary vascular resistance (PVR) were calculated using standard formulae as follows: [SVR ([…])=(MAP−CVP)/CO*79.96]; and [PVR ([…])=(PAP−PCWP)/CI*79.96].
(1) “Autologous whole blood” animals received an infusion of 37° C. autologous whole blood (12 ml/kg over 20 minutes) while breathing at FiO2=0.3 (n=3); (2) “HBOC-201” animals received an infusion of 37° C. HBOC-201 (12 ml/kg over 20 minutes) while breathing at FiO2=0.3 (n=3); and (3) “HBOC-201 after high and low dose iNO” animals inhaled 80 ppm nitric oxide at FiO2=0.3 for one hour before receiving an infusion of HBOC-201 (12 ml/kg over 20 minutes), which was followed by breathing 5 ppm nitric oxide at FiO2=0.3 for two hours, which was followed by breathing at FiO2=0.3 (and discontinued inhalation of nitric oxide gas) for another one hour (n=4).

[4] = lambs breathing 80 ppm nitric oxide for one hour before HBOC-201, terminated immediately before infusion
[5] = lambs: 80 ppm nitric oxide one hour before HBOC-201, then 5 ppm after the infusion
[6] = NOS3−/− mice breathing air, three minutes after infusion
[7] = WT mice breathing air, three minutes after infusion
[8] = WT ± iNO: WT mice breathing 80 ppm NO in air for 15 min, NO discontinued, then infusion

[N]=O [nitric oxide]
increase of LVESP, LVEDP, SVR, Ea and τ induced by murine tetrameric hemoglobin infusion ([1]; wild type mice pretreated with inhaled nitric oxide at 80 ppm for 15 minutes): abolished the increase of LVESP, LVEDP, SVR, Ea, and τ
plasma methemoglobin compared to lambs that received HBOC-201 without nitric oxide (plasma hemoglobin [2]; 80 ppm nitric oxide for one hour before HBOC-201, terminated at infusion): did not result in an increase in plasma methemoglobin
plasma methemoglobin compared to animals that received HBOC-201 without nitric oxide (plasma hemoglobin [2]; 80 ppm nitric oxide one hour before HBOC-201, then 5 ppm after the infusion): did not result in an increase in plasma methemoglobin
hemoglobin-induced elevation in systolic blood pressure (awake mice; wild type mice breathing 80 ppm nitric oxide continuously before and subsequent to infusion of murine tetrameric hemoglobin solution): prevented a hemoglobin-induced elevation in systolic blood pressure
hemoglobin-induced elevation in systolic blood pressure (awake mice; wild type mice breathing 80 ppm nitric oxide for 15 minutes before infusion, terminated at infusion): prevented a hemoglobin-induced elevation in systolic blood pressure
hemoglobin-induced elevation in systolic blood pressure (awake mice; wild type mice breathing 80 ppm nitric oxide for one hour before infusion, terminated at infusion): prevented a hemoglobin-induced elevation in systolic blood pressure
hemoglobin-induced elevation in systolic blood pressure (awake mice; wild type mice breathing 200 ppm nitric oxide for 7 minutes before infusion, terminated at infusion): prevented a hemoglobin-induced elevation in systolic blood pressure
conversion of plasma hemoglobin to methemoglobin (plasma hemoglobin [3]; wild type mice breathing 80 ppm nitric oxide for one hour before infusion of murine tetrameric hemoglobin solution, terminated at infusion): < 5%
conversion of plasma hemoglobin to methemoglobin (plasma hemoglobin [3]; wild type mice breathing 80 ppm nitric oxide while given murine tetrameric hemoglobin solution, 10 and 60 minutes after injection): conversion of a significant proportion of plasma hemoglobin to inactive methemoglobin
pulmonary hypertension after inhalation of 5 ppm nitric oxide was abruptly discontinued (awake lambs; lambs administered HBOC-201): rebounded
increase in mean arterial pressure after HBOC-201 infusion (awake lambs; [4]): blocked the increase
increase in pulmonary arterial pressure after HBOC-201 infusion (awake lambs; [4]): did not block the increase
increase in pulmonary vascular resistance after HBOC-201 infusion (awake lambs; [4]): did not block the increase
increase in systemic vascular resistance after HBOC-201 infusion (awake lambs; [4]): blocked the increase
increase in mean arterial pressure after HBOC-201 infusion (awake lambs; [5]): blocked the increase
increase in pulmonary arterial pressure after HBOC-201 infusion (awake lambs; [5]): blocked the increase
increase in pulmonary vascular resistance after HBOC-201 infusion (awake lambs; [5]): blocked the increase
increase in systemic vascular resistance after HBOC-201 infusion (awake lambs; [5]): blocked the increase

O=NO [sodium nitrite, Sodium nitrite]
systemic hypertension caused by subsequent infusion of murine tetrameric hemoglobin (awake mice; awake mice, 48 nmol sodium nitrite i.v. five minutes before hemoglobin (0.48 g/kg)): blocked the systemic hypertension
blood pressure before murine tetrameric hemoglobin was infused (awake mice; awake mice, 48 nmol sodium nitrite via tail vein): did not alter blood pressure
plasma methemoglobin level (plasma hemoglobin [3]; mouse, in vivo): 10±2%

HBOC-201: a chemically cross-linked bovine hemoglobin formulated in a salt solution; Biopure
mean arterial pressure after infusion (awake lambs; in vivo): increase
pulmonary arterial pressure after infusion (awake lambs; in vivo): increase
pulmonary vascular resistance after infusion (awake lambs; in vivo): increase
systemic vascular resistance after infusion (awake lambs; in vivo): increase

Tetrameric Hb: tetrameric hemoglobin solution (4 g/dl) prepared from lysed whole blood of wild type C57BL/6 mice
CO (cardiac output) [1, 6]: 9 ± 1 mL/min
CVP (central venous pressure) [1, 6]: 4 ± 0 mmHg
Ea (arterial elastance) [1, 6]: 8 ± 1 mmHg/μl
HR (heart rate) [1, 6]: 553 ± 18 bpm
LVEDP (left ventricular end-diastolic pressure) [1, 6]: 8 ± 2 mmHg
LVESP (left ventricular end-systolic pressure) [1, 6]: 117 ± 5 mmHg
SVR (systemic vascular resistance) [1, 6]: 15 ± 2 dynes*sec/cm^2
Tau (time constant of isovolumic relaxation) [1, 6]: 6 ± 1 ms
dP/dtmax (maximum rate of developed left ventricular pressure) [1, 6]: 13736 ± 606 mmHg/s
dP/dtmin (minimum rate of developed left ventricular pressure) [1, 6]: −12290 ± 620 mmHg/s
CO (cardiac output) [1, 7]: 10 ± 1 mL/min
CVP (central venous pressure) [1, 7]: 3 ± 0 mmHg
Ea (arterial elastance) [1, 7]: 9 ± 1 mmHg/μl
HR (heart rate) [1, 7]: 602 ± 12 bpm
LVEDP (left ventricular end-diastolic pressure) [1, 7]: 12 ± 1 mmHg
LVESP (left ventricular end-systolic pressure) [1, 7]: 158 ± 5 mmHg
SVR (systemic vascular resistance) [1, 7]: 16 ± 1 dynes*sec/cm^2
Tau (time constant of isovolumic relaxation) [1, 7]: 8 ± 1 ms
dP/dtmax (maximum rate of developed left ventricular pressure) [1, 7]: 12260 ± 750 mmHg/s
dP/dtmin (minimum rate of developed left ventricular pressure) [1, 7]: −10110 ± 640 mmHg/s
CO (cardiac output) [1, 8]: 12 ± 1 mL/min
CVP (central venous pressure) [1, 8]: 4 ± 0 mmHg
Ea (arterial elastance) [1, 8]: 5 ± 0 mmHg/μl
HR (heart rate) [1, 8]: 603 ± 20 bpm
LVEDP (left ventricular end-diastolic pressure) [1, 8]: 6 ± 1 mmHg
LVESP (left ventricular end-systolic pressure) [1, 8]: 101 ± 4 mmHg
SVR (systemic vascular resistance) [1, 8]: 8 ± 1 dynes*sec/cm^2
Tau (time constant of isovolumic relaxation) [1, 8]: 5 ± 0 ms
dP/dtmax (maximum rate of developed left ventricular pressure) [1, 8]: 11230 ± 750 mmHg/s
dP/dtmin (minimum rate of developed left ventricular pressure) [1, 8]: −10650 ± 430 mmHg/s
effect of infusion on invasive hemodynamic parameters ([1]; anesthetized NOS3−/− mice): did not alter HR, LVESP, LVEDP, CO, dP/dtmax, dP/dtmin, SVR, Ea, τ, or CVP
effect of infusion on invasive hemodynamic parameters ([1]; anesthetized wild type mice): increased LVESP, LVEDP, SVR, Ea, and τ and decreased CO without affecting dP/dtmax, dP/dtmin, or CVP
tail systolic blood pressure after intravenous injection (awake mice): significant increase in systolic blood pressure
tail systolic blood pressure after intravenous injection (awake mice; listed as murine tetrameric hemoglobin solution): significant elevation in blood pressure
systemic blood pressure after infusion (awake mice; solution containing 14.5% methemoglobin): caused systemic hypertension
